Patent US20170189376A1, “BUTYROYLOXYMETHYL DIETHYL PHOSPHATE COMPOUNDS AND USES THEREOF” (MOR RESEARCH APPLICATIONS LTD., priority 2016, published 2017)

How the values were obtained:
[1] = test system: Sezary syndrome Peripheral blood lymphocytes SPBL; assay: MTT-based viability assay, Sezary PBL (SPBL); settings: Homo sapiens, Lymphocyte, 72 h, read-out: IC50 single treatment Dox
Description: (§4) Peripheral blood was diluted 1:3 in sterile phosphate-buffered saline (PBS). Lymphoprep was added in the same blood volume with a Pasteur pipette, and the sample was centrifuged. PBL were collected from the white median interphase, rinsed twice with PBS, and suspended in RPMI medium with 10 mM HEPES to 2×10^6 cells/mL.
(§5) MyLa cells (10^4), Hut78 cells (5×10^3), SPBL and NPBL (10^5) were seeded in triplicate in 96-well plates. The PBL were activated with PHA 40 μg/10^6 cell for 24 h before the experiment. […] The cells were then placed in a humidified incubator for 72 h. […] The MTT reagent was added to a final concentration of 0.5 mg/mL, and the cells were incubated for an additional 4 h. Thereafter, 0.1N HCl in isopropanol was added, and cell viability was determined using an ELISA reader (PowerWaveX, BioTek, Winooski, Vt., USA) at a 570 nm wavelength with background subtraction at 630-690 nM.
(§6) Viability and apoptosis curves were based on the averages of at least 3 independent experiments. The standard error (SE) was calculated for each group as follows: SE=standard deviation/√n, where n is number of values in the group. […] Significant differences in selectivity among groups were analyzed by comparing the IC50 values using two-tailed unpaired t-test using Excel or by comparing the differential effects for all the dose response titrations using ANOVA with repeated measures.
(§7) NPBL were treated at same molar ratio as SPBL.

Hut78 cells [2] = assay: Alkaline comet assay, Hut78 cells; format: cell-based, homo sapiens; settings: Hut78, 72 h after treatment, relative to 24 h
Description: (§1) Comet assay using the Trevigen Comet assay kit (Trevigen Inc., Gaithersburg, Md., USA) was done according to the manufacturer's protocol. MyLa or Hut78 cells were treated with drugs, washed, incubated for interval time, washed in PBS, counted and suspended in PBS. 1 ×10^5 cells/ml were incubated with pre-heated low melting agarose for 20 min in 37° C., loaded on a comet-slide and kept in the dark for 30 min at 4° C., in cold lysis solution for another 20 min, and finally for 20 min with unwinding solution in RT. The slides were run with cold fresh alkaline electrophoresis buffer in the COMET-20 electrophoresis system (Scie-Plas, Harvard apparatus, UK) for 20 min in 21 volts, 4° C. Slides were stirred gently and washed twice in dH20 bath for 5 min and in 70% ethanol for 5 min. […] The cells were scored under fluorescence microscope (Nikon eclipse 55i, Tokyo, Japan) at a magnification ×10. Cell scores were analyzed using the software “Comet Assay IV” (perceptive instruments, UK). […] 24h after treating the cells the mean tail moment reaches its maximal level, therefore the percent of repaired damage was calculated as follows: (mean tail moment at 24h)−(mean tail moment at indicated time)/mean tail moment at 24 h. At least a total of 100 cells were measured per time-point. […]

[3] = test system: p-KAP1, γH2AX in MyLa cells; assay: Western blot of p-KAP1 and γH2AX, MyLa cells; format: cell-based, human; settings: 1 mM AN-7 2 h, 1 μM Dox 1 h, or AN-7 1 h followed with Dox 1 h
Description: Cell fraction—3×10^6cells were suspended in 100 μl hypotonic buffer (HEPES 10 mM, KCl 5 mM, MgCl2 1.5 mM, DTT 1 mM, NP-40 1%), incubated for 15 min in ice, centrifuged and the supernatant fraction was subjected to western blot of pKAP1 and actin. The sediment was washed once with hypotonic buffer followed by suspension in 100 μl of hypertonic buffer (HEPES 10 mM, NaCl 500 mM, MgCl2 1.5 mM, DTT 1 mM, NP-40 1%), incubated for 15 min in ice, centrifuged, supernatant was removed and the sediment was boiled, vortexed for 10 min at 95° C. with sample buffer ×3 for 3 times and subjected to western blot of γH2AX.
(§2) Whole cells extract—Cells were suspended in lysis buffer (Tris-HCl 50 mM, NaCl 150 mM, NP-40 0.5%), incubated for lh on ice, centrifuged and the supernatant was collected. Protease and Phosphatase inhibitors were added to all buffers at a 1:100 dilutions. […] Bands were visualized by Odyssey Infrared Imaging System and the bands intense were normalized to actin.
Next, cells were fractionated and fraction lysate were subjected to western blot of phosphorylated KAP1 (p-KAP1), γH2AX and actin.

NPBL = assay: MTT-based viability assay, normal PBL (NPBL)
Description: as §4, §5, §6, §7

MyLa cells [4] = assay: Alkaline comet assay, MyLa cells; format: cell-based, human; settings: 96 h after treatment, relative to 24 h
Description: as §1

[5] = test system: NBS1, Rad51, Mre11, DNA-PK, Ku70 in MyLa cells; assay: Western blot of DSB repair proteins, MyLa cells; format: cell-based, human; settings: 24 and 48 h post treatment
Description: as §2
(§3) To address whether AN-7 interfere in DSBs repair by regulating the expression of DSBs repair proteins, Immunoblot was applied for those proteins. MyLa and Hut78 cells were treated as previously described and subjected to western blot of DSBs repair proteins.

MyLa cells [6] = assay: MTT-based viability assay, MyLa cells; settings: Homo sapiens, 72 h
Description: as §5, §6

[7] = test system: NBS1, Rad51, Mre11, DNA-PK, Ku70 in Hut78 cells; assay: Western blot of DSB repair proteins, Hut78 cells; format: cell-based, homo sapiens; settings: Hut78, 18 and 24 h post treatment
Description: as §2, §3

Hut78 cells [8] = assay: MTT-based viability assay, Hut78 cells; settings: Homo sapiens, HuT78, 72 h, read-out: IC50 single treatment Dox
Description: as §5, §6

[9] = test system: γH2AX foci in Hut78 cells; assay: γH2AX nuclear foci immunofluorescence, Hut78 cells; format: cell-based, homo sapiens; settings: Hut78, 24 h-72 h after treatment, relative to 3 h
Description: MyLa or Hut78 cells were treated with drugs, washed, incubated for interval time, and then 2×10^5cells/m1 were centrifuged with cyto-slides (CytoSlide, Shandon, Thermo, Ma, USA) in CYTOSPIN 4 (Shandon, Thermo scientific, West Palm Beach, USA) for 5 min 1000 rpm. Slides were washed with cold PBS on ice, pre-extracted with cold PBS-NP40-0.2% for 10 min, washed 3 times with cold PBS, fixed with 4% Paraformaldehyde for 10 min at RT, and washed 3 times with PBS. Slides were incubated with anti γ-H2AX, Bethyl A300-081A 1:1000, for 1.5 h in RT, washed twice in PBS-T (0.05% Tween in PBS) and once with PBS, incubated with Donkey anti rabbit IgG Alexa Fluor A-21206 1:700, for 30 min at RT, washed 3 times with PBS, dried gently, covered with 1 drop of Fluorescent mounting medium with DAPI (GBI-labs, WA, USA) and on top with cover glass. Slides were visualized in a light microscope (Olympus BX52, Tokyo, Japan). Foci analysis was performed using ImageJ software and PZfociEZ plugin. % of cells with >5 foci/cell was considered as damaged cells. % of repaired damage was calculated as follows: (% of cells with >5 foci/cell at 3 h)−(% of cells with >5 foci/cell at indicated time)/(% of cells with >5 foci/cell at 3 h). At least a total of 150 cells were measured per time-point.

MyLa cells [10] = assay: FACS analysis with annexin V and PI staining (apoptosis), MyLa cells; settings: SAHA 10 μM or AN-7 300 μM
Description: (§8) The cells (2.5×10^6 cells/mL) were washed in PBS and binding buffer and were resuspended in binding buffer, and of fluorescein isothiocyanate-conjugated annexin V (5 μL) was added to a 100 μL cell suspension for 10-15 min. Incubation was performed at room temperature under light-protected conditions. The cells were then washed in binding buffer and were resuspended in the binding buffer and propidium iodide (PI) (5 μL) was added. The samples were analyzed by flow cytometry (FACS Calibur 4.1.6, Becton Dickinson): fluorescein-labeled annexin V at a 530 nm wavelength, and PI at a 585 nm wavelength. The percentage of cells was calculated by their distribution in a fluorescence dot plot generated with FCS Express 4 software (De Novo Software, Los Angeles, Calif., USA). Early (annexin V-positive) and late (annexin V+PI-positive) apoptotic cells were summed to yield the total number of apoptotic cells.

MyLa cells [11] = assay: cells; format: cell-based, human; settings: Homo sapiens
Hut78 cells [12] = assay: FACS analysis with annexin V and PI staining (apoptosis), Hut78 cells; settings: Hut78; SAHA 10 μM or AN-7 300 μM
Description: as §8

HDAC1 = assay: Western blot of HDAC1 protein expression in MF/SS cell lines; format: cell-based, human; settings: MyLa and Hut78, SAHA 10 μM or AN-7 300 μM
Acetylated H3 = assay: Western blot of acetylated H3 in nuclear lysate of MF/SS cell lines; settings: MyLa and Hut78, SAHA 10 μM or AN-7 300 μM
Description: Cells (5×10^6) were suspended in 300 μL of cytoplasmic buffer (HEPES 10 mM, KCl 10 mM, EDTA 1 mM, EGTA 1 mM, DTT 1 mM). After 20 min of incubation on ice, the mixture was passed 5 times through a 25-G syringe and then centrifuged briefly to obtain the cytoplasmic supernatant.
The nuclear pellet was suspended in 40-60 μL of nuclear buffer (cytoplasmic buffer+10% glycerol), incubated with shaking at 4° C. for 15 min, and centrifuged. The supernatant was collected as a nuclear fraction.
Cell extracts were separated by SDS-polyacrylamide gel electrophoresis (SDS-PAGE), transferred to a nitrocellulose membrane, and subjected to immunoblot with primary and secondary antibodies, as listed in table 1.

[13] = test system: caspase 3, PARP, P21 and Bax in MF/SS cell lines; assay: Western blot of pro-apoptotic proteins in MF/SS cell lines; format: cell-based, human; settings: MyLa and Hut78, SAHA 10 μM or AN-7 300 μM
Description: However, there was a stronger signal in response to SAHA.

Compound | IC50 [1] [nM] | repair of DNA breaks (mean tail moment) (Hut78 cells [2]) | induction and clearance of p-KAP1 [3] | induction and clearance of γH2AX [3] | IC50 (NPBL; Homo sapiens, 72 h, read-out: IC50 single treatment Dox) [nM] | damage repair (DNA breaks, mean tail moment) (MyLa cells [4]) | expression of NBS1, Mre11, Rad51 and DNA-PK [5] | IC50 (MyLa cells [6]; read-out: IC50 single treatment Dox) [nM] | expression of NBS1 and DNA-PK [7] | IC50 (Hut78 cells [8]) [nM] | percentage of repaired damage (γH2AX foci) [9] [%] | apoptosis (MyLa cells [10]) | NPBL survival at high doses (NPBL; high doses lethal to Hut78 and MyLa cells) | IC50 (MyLa cells [11]; 24 h, read-out: IC50 Long exposure) [nM] | IC50 (MyLa cells [11]; read-out: IC50 Short exposure) [nM] | IC50 (MyLa cells [6]; read-out: IC50 single treatment (HDACI)) [nM] | apoptosis (Hut78 cells [12]) | HDAC1 expression level (HDAC1) | expression of acetylated H3 (Acetylated H3) | expression of pro-apoptotic proteins (western blot) [13]
COc1cccc2c1C(=O)c1c(O)c3c(c(O)c1C2=O)C[C@@](O)(C(=O)CO)C[C@@H]3O[C@H]1C[C@H](N)[C@H](O)[C@H](C)O1 [Dox, doxorubicin, reference compound] | 68.2 ± 10.8 | about 50% | detected at 1-3 hours and declined after 24 hours | clearance of γH2AX observed at 24 h | 399 ± 24.3 | about 72% | did not affect the expression of DSB repair proteins | 19 ± 1 | did not affect the expression of DSB repair proteins | 27 ± 2.6 | 77.9 | – | – | – | – | – | – | – | – | –
O=C(CCCCCCC(=O)Nc1ccccc1)NO [SAHA, Suberoylanilide hydroxamic acid, reference compound] | – | – | – | – | – | – | – | – | – | – | – | about 60% | lethal to all cells | 2300 ± 80 | 33000 ± 3700 | 2200 ± 100 | about 60% | downregulated | induced | cleavage of caspase 3 and poly ADP-ribose polymerase (PARP) and the production of P21 and Bax
